Results as given in patent publication US10155021B2, “Antimicrobial 4-oxoquinolizines” (Emergent Product Development Gaithersburg Inc., priority 2011, dated 2018).
Converted amounts (≈) assume the structure as drawn. Like-named read-outs stand apart in the source and are kept apart here.

How the values were obtained:
[1] = tested on: Acinetobacter spp. H064200250; assay: MIC determination for Acinetobacter strains (Example 3); assay type: cell-based, Acinetobacter sp.; conditions: LEV R, CIP R, MRP R, IMP I
A. baumannii A329 [2] = assay: as above; assay type: cell-based; conditions: LEV R, CIP R, MRP R, IMP R, AMK R, TET R
A. baumannii A 401 = assay: as above; assay type: cell-based; conditions: A401, LEV R, CIP R, AMK R, TET R
[3] = tested on: resistant strains of A. baumannii and one strain of Acinetobacter sp.; assay: MIC without and with sub-inhibitory polymyxin B, whole panel / MIC ranges (Example 4; also strains not listed separately); assay type: cell-based; conditions: Acinetobacter baumannii
A. baumannii ATCC 19606 = assay: MIC without and with sub-inhibitory polymyxin B (Example 4); assay type: cell-based, Acinetobacter baumannii; conditions: Acinetobacter baumannii, ATCC19606, A. baumannii ATCC 19606, without polymyxin B, read-out: MIC without PB
A. baumannii J2 = assay: as above; assay type: cell-based, Acinetobacter baumannii; conditions: Acinetobacter baumannii, J2, A. baumannii J2, without polymyxin B, read-out: MIC without PB
[4] = tested on: Acinetobacter sp. (H064200250); assay: as above; assay type: cell-based; conditions: Acinetobacter, without polymyxin B
A. baumannii A401 [5] = assay: as above; assay type: cell-based, Acinetobacter baumannii; conditions: for MIC ratio without/with polymyxin B: A baumannii A 401, ratio MIC without PB to MIC + PB, PB 0.06 μg/ml; for MIC: Acinetobacter baumannii, A401, A baumannii A 401, without polymyxin B, read-out: MIC without PB
A. baumannii A472 [6] = assay: as above; assay type: cell-based, Acinetobacter baumannii; conditions: for MIC: Acinetobacter baumannii, A472, A. baumannii A472, without polymyxin B, read-out: MIC without PB
A. baumannii A473 [7] = assay: as above; assay type: cell-based, Acinetobacter baumannii; conditions: Acinetobacter baumannii, A473, A. baumannii A473, without polymyxin B, read-out: MIC without PB
A. baumannii A489 [8] = assay: as above; assay type: cell-based, Acinetobacter baumannii; conditions: Acinetobacter baumannii, A489, A. baumannii A489, without polymyxin B, read-out: MIC without PB
[9] = tested on: Acinetobacter sp. (H064200250); assay: Preliminary MBC without and with sub-inhibitory polymyxin B (Example 4); assay type: cell-based; conditions: Acinetobacter, without polymyxin B, preliminary MBC, read-out: MBC without PB
Outline: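 After plating, cultures are held at 37° C for 18-20 hours; the endpoint is then scored by comparing colony growth against the positive control, with MBC defined as the lowest concentration showing roughly 90% reduction.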

A. baumannii A329 [10] = assay: as above; assay type: cell-based, Acinetobacter baumannii; conditions: Acinetobacter baumannii, A329, A. baumannii A329, without polymyxin B, read-out: MBC without PB
A. baumannii A390 = assay: as above; assay type: cell-based, Acinetobacter baumannii; conditions: Acinetobacter baumannii, A390, A. baumannii A390, without polymyxin B, preliminary MBC, read-out: MBC without PB
A. baumannii A401 [11] = assay: as above; assay type: cell-based, Acinetobacter baumannii; conditions: Acinetobacter baumannii, A401, A baumannii A 401, without polymyxin B, preliminary MBC, read-out: MBC without PB
A. baumannii A472 [12] = assay: as above; assay type: cell-based, Acinetobacter baumannii; conditions: Acinetobacter baumannii, A472, A. baumannii A472, without polymyxin B, read-out: MBC without PB
A. baumannii A473 [13] = assay: as above; assay type: cell-based, Acinetobacter baumannii; conditions: Acinetobacter baumannii, A473, A. baumannii A473, without polymyxin B, read-out: MBC without PB
A. baumannii A489 [14] = assay: as above; assay type: cell-based, Acinetobacter baumannii; conditions: Acinetobacter baumannii, A489, A. baumannii A489, without polymyxin B, read-out: MBC without PB
E. coli CTX-M-15 = assay: MIC, panel of quinolone-resistant strains (CLSI); assay type: cell-based; conditions: Escherichia coli, CTXM15; CIP R, ESBL
E. coli 2906 = assay: MIC, panel of quinolone-resistant strains (CLSI); assay type: cell-based; conditions: Escherichia coli, CIP R
Klebsiella ssp KPC-3 = assay: MIC, panel of quinolone-resistant strains (CLSI); assay type: cell-based, Klebsiella spp; conditions: KPC3, CIP R, ESBL
Pseudomonas ssp PER-1 = assay: MIC, panel of quinolone-resistant strains (CLSI); assay type: cell-based, Pseudomonas spp; conditions: PER1, CIP R, ESBL
P. aeruginosa 1388-3-02 = assay: MIC, panel of quinolone-resistant strains (CLSI); assay type: cell-based; conditions: Pseudomonas aeruginosa, 1388302; CIP R, POL R
P. aeruginosa 143-3-03 = assay: MIC, panel of quinolone-resistant strains (CLSI); assay type: cell-based; conditions: Pseudomonas aeruginosa, 143303; CIP I, POL R
[15] = read-out: MIC range without PB 01-10-2008 n = 8, without polymyxin B, 1st experiment, 8 strains
[16] = without polymyxin B, 2nd experiment, 11 strains, read-out: MIC range without PB 14-10-2008 n = 11
[17] = Acinetobacter spp. H064200250 (OXA51), 2nd experiment, visual reading, read-out: MIC without PB
[18] = Acinetobacter spp. H064200250, 1st experiment, read-out: MIC without PB
[19] = Acinetobacter spp. H064200250 (OXA51), 2nd experiment
[20] = Acinetobacter spp. H064200250, 1st experiment

Row | Structure (SMILES) | MIC [1] [µg/mL] | MIC (A. baumannii A329 [2]) [µg/mL] | MIC (A. baumannii A 401) [µg/mL] | MIC [3, 15] [µg/mL] | MIC [3, 16] [µg/mL] | MIC (A. baumannii J2; 1st experiment) [µg/mL] | MIC (A. baumannii J2; 2nd experiment, visual reading) [µg/mL] | MIC [4, 17] [µg/mL] | MIC [4, 18] [µg/mL] | MIC (A. baumannii A401 [5]; 1st experiment) [µg/mL] | MIC (A. baumannii A401 [5]; 2nd experiment, visual reading) [µg/mL] | MIC (A. baumannii A489 [8]; 2nd experiment, visual reading) [µg/mL] | MBC [9, 19] [µg/mL] | MBC [9, 20] [µg/mL] | MBC (A. baumannii A329 [10]; 1st experiment) [µg/mL] | MBC (A. baumannii A401 [11]; 2nd experiment) [µg/mL] | MBC (A. baumannii A401 [11]; 1st experiment) [µg/mL] | MBC (A. baumannii A473 [13]; 1st experiment) [µg/mL] | MBC (A. baumannii A489 [14]; 1st experiment) [µg/mL] | MBC (A. baumannii A489 [14]; 2nd experiment) [µg/mL] | other results
1 | Cc1c(-c2ccc(N)c(F)c2)ccn2c(=O)c(C(=O)O)cc(C3CC3)c12 [Compound 1, 8-(3-fluoro-4-amino-phenyl)-1-cyclopropyl-9-methyl-4-oxo-quinolizine-3-carboxylic acid] | 8 (≈ 22.7 µM) | 16 (≈ 45.4 µM) | 4 (≈ 11.4 µM) | 1 to 32 (≈ 2.84 to 90.8 µM) | 4 to 32 (≈ 11.4 to 90.8 µM) | 8 (≈ 22.7 µM) | 16 (≈ 45.4 µM) | 16 (≈ 45.4 µM) | 8 (≈ 22.7 µM) | 4 (≈ 11.4 µM) | 16 (≈ 45.4 µM) | 16 (≈ 45.4 µM) | 32 (≈ 90.8 µM) | 8 (≈ 22.7 µM) | 16 (≈ 45.4 µM) | 8 (≈ 22.7 µM) | 16 (≈ 45.4 µM) | 4 (≈ 11.4 µM) | 8 (≈ 22.7 µM) | 16 (≈ 45.4 µM) | MIC (A. baumannii ATCC 19606; 1st experiment): 0.25 µg/mL (≈ 0.709 µM); MIC (A. baumannii ATCC 19606; 2nd experiment, visual reading): 0.25 µg/mL (≈ 0.709 µM); MIC ratio without/with polymyxin B (A. baumannii A401 [5]; 2nd experiment): ≥ 512 µg/mL; MIC (A. baumannii A472 [6]; 1st experiment): 8 µg/mL (≈ 22.7 µM); MIC (A. baumannii A472 [6]; 2nd experiment, visual reading): 8 µg/mL (≈ 22.7 µM); MIC (A. baumannii A473 [7]; 1st experiment): 4 µg/mL (≈ 11.4 µM); MIC (A. baumannii A473 [7]; 2nd experiment, visual reading): 8 µg/mL (≈ 22.7 µM); MIC (A. baumannii A489 [8]; 1st experiment): 4 µg/mL (≈ 11.4 µM); MBC (A. baumannii A390; 2nd experiment): 16 µg/mL (≈ 45.4 µM); MBC (A. baumannii A390; 1st experiment): 16 µg/mL (≈ 45.4 µM); MBC (A. baumannii A472 [12]; 1st experiment): 8 µg/mL (≈ 22.7 µM); MBC (A. baumannii A473 [13]; 2nd experiment): 8 µg/mL (≈ 22.7 µM)
2 | Cc1c(-c2ccc(CN)c(F)c2)ccn2c(=O)c(C(=O)O)cc(C3CC3)c12 [Compound 4, 8-(3-fluoro-4-aminomethyl-phenyl)-1-cyclopropyl-9-methyl-4-oxo-quinolizine-3-carboxylic acid] | 16 (≈ 43.7 µM) | 16 (≈ 43.7 µM) | 16 (≈ 43.7 µM) | 2 to 32 (≈ 5.46 to 87.3 µM) | 4 to 16 (≈ 10.9 to 43.7 µM) |  |  | 32 (≈ 87.3 µM) | 16 (≈ 43.7 µM) | 16 (≈ 43.7 µM) | 16 (≈ 43.7 µM) | 16 (≈ 43.7 µM) | 32 (≈ 87.3 µM) | 16 (≈ 43.7 µM) | 16 (≈ 43.7 µM) | 32 (≈ 87.3 µM) | 4 (≈ 10.9 µM) | 4 (≈ 10.9 µM) | 4 (≈ 10.9 µM) | 16 (≈ 43.7 µM) | MIC (E. coli CTX-M-15): 16 µg/mL (≈ 43.7 µM); MIC (E. coli 2906): 8 µg/mL (≈ 21.8 µM); MIC (Klebsiella ssp KPC-3): 4 µg/mL (≈ 10.9 µM); MIC (Pseudomonas ssp PER-1): 8 µg/mL (≈ 21.8 µM); MIC (P. aeruginosa 1388-3-02): 16 µg/mL (≈ 43.7 µM); MIC (P. aeruginosa 143-3-03): 4 µg/mL (≈ 10.9 µM); MIC ([4]; Acinetobacter spp. H064200250 (OXA51), 2nd experiment, MIC read with alamar blue, read-out: MIC without PB, read with alamar blue): 16 µg/mL (≈ 43.7 µM); MIC (A. baumannii A472 [6]; 2nd experiment, visual reading): 16 µg/mL (≈ 43.7 µM); MBC (A. baumannii A329 [10]; 2nd experiment): 32 µg/mL (≈ 87.3 µM); MBC (A. baumannii A390; 2nd experiment): 32 µg/mL (≈ 87.3 µM); MBC (A. baumannii A472 [12]; 2nd experiment): 16 µg/mL (≈ 43.7 µM)
3 | Cc1c(-c2cc(Cl)c(N)c(Cl)c2)ccn2c(=O)c(C(=O)O)cc(C3CC3)c12 [Compound 3, 8-(3,5-dichloro-4-amino-phenyl)-1-cyclopropyl-9-methyl-4-oxo-quinolizine-3-carboxylic acid] | 8 (≈ 19.8 µM) | 16 (≈ 39.7 µM) | 8 (≈ 19.8 µM) |  |  | 8 (≈ 19.8 µM) | 32 (≈ 79.4 µM) | 16 (≈ 39.7 µM) | 8 (≈ 19.8 µM) | 8 (≈ 19.8 µM) | 16 (≈ 39.7 µM) | 4 (≈ 9.92 µM) | 16 (≈ 39.7 µM) | 8 (≈ 19.8 µM) | 16 (≈ 39.7 µM) | 16 (≈ 39.7 µM) | 4 (≈ 9.92 µM) | 4 (≈ 9.92 µM) | 2 (≈ 4.96 µM) | 4 (≈ 9.92 µM) | MIC (E. coli CTX-M-15): > 32 µg/mL; MIC (E. coli 2906): > 32 µg/mL; MIC (Klebsiella ssp KPC-3): 8 µg/mL (≈ 19.8 µM); MIC (Pseudomonas ssp PER-1): 32 µg/mL (≈ 79.4 µM); MIC (P. aeruginosa 1388-3-02): 8 µg/mL (≈ 19.8 µM); MIC (P. aeruginosa 143-3-03): 4 µg/mL (≈ 9.92 µM); MIC ratio without/with polymyxin B (A. baumannii A401 [5]; 2nd experiment): 128 µg/mL; MIC ratio without/with polymyxin B (A. baumannii A472 [6]; A. baumannii A472, ratio MIC without PB to MIC + PB, PB […], 2nd experiment): ≥ 1020 µg/mL; MIC (A. baumannii A472 [6]; 1st experiment): 32 µg/mL (≈ 79.4 µM); MIC (A. baumannii A473 [7]; 1st experiment): 4 µg/mL (≈ 9.92 µM); MIC (A. baumannii A473 [7]; 2nd experiment, visual reading): 8 µg/mL (≈ 19.8 µM); MIC (A. baumannii A489 [8]; 1st experiment): 4 µg/mL (≈ 9.92 µM); MBC (A. baumannii A329 [10]; 2nd experiment): 32 µg/mL (≈ 79.4 µM); MBC (A. baumannii A473 [13]; 2nd experiment): 8 µg/mL (≈ 19.8 µM)
